What was measured:
HeLa [1] = assay: Survival of human HeLa cells at 0.1 uM under deem light after 96 hrs by MTT assay relative to control; type: functional; conditions: read-out: Survival
HeLa [2] = assay: Survival of human HeLa cells at 10 uM under deem light after 96 hrs by MTT assay relative to control; type: functional; conditions: read-out: Survival
HeLa [3] = assay: Survival of human HeLa cells at 50 uM under deem light after 96 hrs by MTT assay relative to control; type: functional; conditions: read-out: Survival
HeLa [4] = assay: Survival of human HeLa cells at 100 uM under deem light after 96 hrs by MTT assay relative to control; type: functional; conditions: read-out: Survival
NCI-H69 [5] = assay: Survival of human H69 cells at 0.1 uM under deem light after 96 hrs by MTT assay relative to control; type: functional; conditions: NCI-H69, 96 h, read-out: Survival
NCI-H69 [6] = assay: Survival of human H69 cells at 10 uM under deem light after 96 hrs by MTT assay relative to control; type: functional; conditions: NCI-H69, 96 h, read-out: Survival
NCI-H69 [7] = assay: Survival of human H69 cells at 50 uM under deem light after 96 hrs by MTT assay relative to control; type: functional; conditions: NCI-H69, 96 h, read-out: Survival
NCI-H69 [8] = assay: Survival of human H69 cells at 100 uM under deem light after 96 hrs by MTT assay relative to control; type: functional; conditions: NCI-H69, 96 h, read-out: Survival
[9] = Survival of human H209 cells at 0.1 uM under deem light after 96 hrs by MTT assay relative to control; type: functional; conditions: NCI-H209, 96 h, read-out: Survival
[10] = Survival of human H209 cells at 10 uM under deem light after 96 hrs by MTT assay relative to control; type: functional; conditions: NCI-H209, 96 h, read-out: Survival
[11] = Survival of human H209 cells at 50 uM under deem light after 96 hrs by MTT assay relative to control; type: functional; conditions: NCI-H209, 96 h, read-out: Survival
[12] = Survival of human H209 cells at 100 uM under deem light after 96 hrs by MTT assay relative to control; type: functional; conditions: NCI-H209, 96 h, read-out: Survival
[13] = Survival of human 2780.9S cells at 0.1 uM under deem light after 96 hrs by MTT assay relative to control; type: functional; conditions: read-out: Survival
[14] = Survival of human 2780.9S cells at 10 uM under deem light after 96 hrs by MTT assay relative to control; type: functional; conditions: read-out: Survival
[15] = Survival of human 2780.9S cells at 50 uM under deem light after 96 hrs by MTT assay relative to control; type: functional; conditions: read-out: Survival
[16] = Survival of human 2780.9S cells at 100 uM under deem light after 96 hrs by MTT assay relative to control; type: functional; conditions: read-out: Survival
[17] = Survival of human MDA-MB cells at 0.1 uM under deem light after 96 hrs by MTT assay relative to control; type: functional; conditions: read-out: Survival
[18] = Survival of human MDA-MB cells at 10 uM under deem light after 96 hrs by MTT assay relative to control; type: functional; conditions: read-out: Survival
[19] = Survival of human MDA-MB cells at 50 uM under deem light after 96 hrs by MTT assay relative to control; type: functional; conditions: read-out: Survival
[20] = Survival of human MDA-MB cells at 100 uM under deem light after 96 hrs by MTT assay relative to control; type: functional; conditions: read-out: Survival
SiHa [21] = assay: Cytotoxicity against human SIHA cells under deem light after 96 hrs by MTT assay; type: functional, cell-based
Raji [22] = assay: Cytotoxicity against human Raji cells under deem light after 96 hrs by MTT assay; type: functional, cell-based
[23] = Cytotoxicity against human MDA-MB cells under deem light after 96 hrs by MTT assay; type: functional, cell-based
K562 [24] = assay: Cytotoxicity against human K562 cells under deem light after 96 hrs by MTT assay; type: functional, cell-based; conditions: K562, 96 h
HeLa [25] = assay: Cytotoxicity against human HeLa cells under deem light after 96 hrs by MTT assay; type: functional, cell-based
NCI-H69 [26] = assay: Cytotoxicity against human H69 cells under deem light after 96 hrs by MTT assay; type: functional, cell-based; conditions: NCI-H69, 96 h
Daudi = assay: Cytotoxicity against human Daudi cells under deem light after 96 hrs by MTT assay; type: functional, cell-based
[27] = Cytotoxicity against human 2780.9S cells under deem light after 96 hrs by MTT assay; type: functional, cell-based
[28] = Photohemolysis in human RBC in absence of light; type: ADME, cell-based; conditions: erythrocyte
[29] = Photohemolysis in human RBC at 520 nM under exposure to light for 10 mins; type: ADME, cell-based, Erythrocyte; conditions: human red blood cells, read-out: Activity
[30] = Photohemolysis in human RBC assessed as concentration required to 50% hemolysis under light exposure for 5 mins; type: ADME, cell-based, Erythrocyte; conditions: human red blood cells, read-out: Activity
[31] = Photohemolysis in human RBC assessed as concentration required to 50% hemolysis under light exposure for 10 mins; type: ADME, cell-based, Erythrocyte; conditions: human red blood cells, read-out: Activity
SiHa [32] = assay: Survival of human SIHA cells at 1 uM under deem light after 96 hrs by MTT assay relative to control; type: functional; conditions: read-out: Survival
K562 [33] = assay: Survival of human K562 cells at 1 uM under deem light after 96 hrs by MTT assay relative to control; type: functional; conditions: K562, 96 h, read-out: Survival
Raji [34] = assay: Survival of human Raji cells at 1 uM under deem light after 96 hrs by MTT assay relative to control; type: functional; conditions: read-out: Survival
HeLa [35] = assay: Survival of human HeLa cells at 1 uM under deem light after 96 hrs by MTT assay relative to control; type: functional; conditions: read-out: Survival
NCI-H69 [36] = assay: Survival of human H69 cells at 1 uM under deem light after 96 hrs by MTT assay relative to control; type: functional; conditions: NCI-H69, 96 h, read-out: Survival
[37] = Survival of human H209 cells at 1 uM under deem light after 96 hrs by MTT assay relative to control; type: functional; conditions: NCI-H209, 96 h, read-out: Survival
[38] = Survival of human 2780.9S cells at 1 uM under deem light after 96 hrs by MTT assay relative to control; type: functional; conditions: read-out: Survival
[39] = Survival of human MDA-MB cells at 1 uM under deem light after 96 hrs by MTT assay relative to control; type: functional; conditions: read-out: Survival
SiHa [40] = assay: Survival of human SIHA cells at 10 uM under deem light after 96 hrs by MTT assay relative to control; type: functional; conditions: read-out: Survival
SiHa [41] = assay: Survival of human SIHA cells at 50 uM under deem light after 96 hrs by MTT assay relative to control; type: functional; conditions: read-out: Survival
SiHa [42] = assay: Survival of human SIHA cells at 100 uM under deem light after 96 hrs by MTT assay relative to control; type: functional; conditions: read-out: Survival
K562 [43] = assay: Survival of human K562 cells at 0.1 uM under deem light after 96 hrs by MTT assay relative to control; type: functional; conditions: K562, 96 h, read-out: Survival
K562 [44] = assay: Survival of human K562 cells at 10 uM under deem light after 96 hrs by MTT assay relative to control; type: functional; conditions: K562, 96 h, read-out: Survival
K562 [45] = assay: Survival of human K562 cells at 50 uM under deem light after 96 hrs by MTT assay relative to control; type: functional; conditions: K562, 96 h, read-out: Survival
K562 [46] = assay: Survival of human K562 cells at 100 uM under deem light after 96 hrs by MTT assay relative to control; type: functional; conditions: K562, 96 h, read-out: Survival
Raji [47] = assay: Survival of human Raji cells at 0.1 uM under deem light after 96 hrs by MTT assay relative to control; type: functional; conditions: read-out: Survival
Raji [48] = assay: Survival of human Raji cells at 10 uM under deem light after 96 hrs by MTT assay relative to control; type: functional; conditions: read-out: Survival
Raji [49] = assay: Survival of human Raji cells at 50 uM under deem light after 96 hrs by MTT assay relative to control; type: functional; conditions: read-out: Survival
Raji [50] = assay: Survival of human Raji cells at 100 uM under deem light after 96 hrs by MTT assay relative to control; type: functional; conditions: read-out: Survival

SMILES: C=Cc1c(C)c2cc3nc(c4c5[nH]c(cc6nc(cc1[nH]2)C(C)=C6CC)c(C)c5C(=O)[C@@H]4C(=O)OC)[C@@H](CCC(=O)OC)[C@@H]3C [METHYL PHEOPHORBIDE A]
- viability at 0.1 µM (HeLa [1]): 89.1%
- viability at 10 µM (HeLa [2]): 72.1%
- viability at 50 µM (HeLa [3]): 48.7%
- viability at 100 µM (HeLa [4]): 36.7%
- viability at 0.1 µM (NCI-H69 [5]): 70.7%
- viability at 10 µM (NCI-H69 [6]): 79%
- viability at 50 µM (NCI-H69 [7]): 76.7%
- viability at 100 µM (NCI-H69 [8]): 63.6%
- viability at 0.1 µM [9]: 83.6%
- viability at 10 µM [10]: 91.7%
- viability at 50 µM [11]: 85.2%
- viability at 100 µM [12]: 82.3%
- viability at 0.1 µM [13]: 100%
- viability at 10 µM [14]: 93.4%
- viability at 50 µM [15]: 90.1%
- viability at 100 µM [16]: 83.2%
- viability at 0.1 µM [17]: 128%
- viability at 10 µM [18]: 103%
- viability at 50 µM [19]: 101%
- viability at 100 µM [20]: 68.9%
- IC50 (SiHa [21]): > 100 µM
- IC50 (Raji [22]): > 100 µM
- IC50 [23]: > 100 µM
- IC50 (K562 [24]): > 100 µM
- IC50 (HeLa [25]): 25 µM
- IC50 (NCI-H69 [26]): > 100 µM
- IC50 (Daudi): 25 µM
- IC50 [27]: > 100 µM
- Activity [28]: Non-toxic
- hemolysis at 10 min, 0.52 µM [29]: 18%
- HC50 at 5 min [30]: > 525 nM
- HC50 at 10 min [31]: > 525 nM
- viability at 1 µM (SiHa [32]): 98%
- viability at 1 µM (K562 [33]): 93.3%
- viability at 1 µM (Raji [34]): 102%
- viability at 1 µM (HeLa [35]): 77.4%
- viability at 1 µM (NCI-H69 [36]): 84.3%
- viability at 1 µM [37]: 90.2%
- viability at 1 µM [38]: 94.9%
- viability at 1 µM [39]: 115%
- viability at 10 µM (SiHa [40]): 90.8%
- viability at 50 µM (SiHa [41]): 81%
- viability at 100 µM (SiHa [42]): 68%
- viability at 0.1 µM (K562 [43]): 86%
- viability at 10 µM (K562 [44]): 97.3%
- viability at 50 µM (K562 [45]): 97.3%
- viability at 100 µM (K562 [46]): 106%
- viability at 0.1 µM (Raji [47]): 92.9%
- viability at 10 µM (Raji [48]): 107%
- viability at 50 µM (Raji [49]): 106%
- viability at 100 µM (Raji [50]): 94.3%
